# Where “and” joins values, the source holds several entries; their conditions need not be identical. Identical values can stand only once. Inconclusive results and toxic doses are left out.
# System: L1210 leukemia ip in BDF1 mice, survival T/C
# Test: NCI In Vivo Anticancer Drug Screen. Data for tumor model L1210 Leukemia (intraperitoneal) in B6D2F1 (BDF1) mice
# Settings: endpoint: mean survival time, higher = longer survival
# Summary of the method: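 Tumor was transplanted into mice, which were then dosed with test compound or vehicle alone. Survival was recorded for each group, and the treated figure was expressed relative to the control figure.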
# [1] = dose: 100.0 mg/kg/injection, schedule: Q04DX003 (ip), vehicle: saline with Tween-80
# [2] = dose: 200.0 mg/kg/injection, schedule: Q04DX003 (ip), vehicle: saline with Tween-80
# [3] = dose: 400.0 mg/kg/injection, schedule: Q04DX003 (ip), vehicle: saline with Tween-80
# [4] = dose: 100.0 mg/kg/injection, schedule: Q04DX002 (ip), vehicle: saline with Tween-80
# [5] = dose: 200.0 mg/kg/injection, schedule: Q04DX002 (ip), vehicle: saline with Tween-80
# [6] = dose: 400.0 mg/kg/injection, schedule: Q04DX002 (ip), vehicle: saline with Tween-80
# [7] = dose: 100.0 mg/kg/injection, schedule: Q01DX009 (ip), vehicle: Klucel (hydroxypropylcellulose) (HPC)
# [8] = dose: 200.0 mg/kg/injection, schedule: Q01DX009 (ip), vehicle: Klucel (hydroxypropylcellulose) (HPC)
# [9] = dose: 400.0 mg/kg/injection, schedule: Q01DX009 (ip), vehicle: Klucel (hydroxypropylcellulose) (HPC)
# [10] = dose: 100.0 mg/kg/injection, schedule: Q04DX003 (ip), vehicle: Klucel (hydroxypropylcellulose) (HPC)
# [11] = dose: 200.0 mg/kg/injection, schedule: Q04DX003 (ip), vehicle: Klucel (hydroxypropylcellulose) (HPC)
# [12] = dose: 400.0 mg/kg/injection, schedule: Q04DX003 (ip), vehicle: Klucel (hydroxypropylcellulose) (HPC)
# [13] = dose: 100.0 mg/kg/injection, schedule: Q01DX001 (ip), vehicle: saline
# [14] = dose: 200.0 mg/kg/injection, schedule: Q01DX001 (ip), vehicle: saline
# [15] = dose: 400.0 mg/kg/injection, schedule: Q01DX001 (ip), vehicle: saline
# [16] = dose: 100.0 mg/kg/injection, schedule: Q04DX002 (ip), vehicle: saline
# [17] = dose: 200.0 mg/kg/injection, schedule: Q04DX002 (ip), vehicle: saline
# [18] = dose: 50.0 mg/kg/injection, schedule: Q01DX001 (ip), vehicle: carboxymethylcellulose (CMC)
# [19] = dose: 100.0 mg/kg/injection, schedule: Q04DX002 (ip), vehicle: Klucel (hydroxypropylcellulose) (HPC)
# [20] = dose: 200.0 mg/kg/injection, schedule: Q04DX002 (ip), vehicle: Klucel (hydroxypropylcellulose) (HPC)
# [21] = dose: 400.0 mg/kg/injection, schedule: Q04DX002 (ip), vehicle: Klucel (hydroxypropylcellulose) (HPC)
# [22] = dose: 100.0 mg/kg/injection, schedule: Q01DX001 (ip), vehicle: Klucel (hydroxypropylcellulose) (HPC)
compound,measurement,setting,value
Cc1cc(C)nc(NNc2nc(C)cc(C)n2)n1,T/C,"dose: 100.0 mg/kg/injection, schedule: Q01DX001 (ip), vehicle: saline with Tween-80",105 % of control
same,T/C,[1],92 % of control
same,T/C,"dose: 200.0 mg/kg/injection, schedule: Q01DX001 (ip), vehicle: saline with Tween-80",104 % of control
same,T/C,[2],92 % of control
same,T/C,"dose: 400.0 mg/kg/injection, schedule: Q01DX001 (ip), vehicle: saline with Tween-80",100 % of control
same,T/C,[3],100 % of control
CNC(=O)Oc1c(C)cccc1C,T/C,[4],103 % of control
same,T/C,[5],106 % of control
same,T/C,[6],95 % of control
CC(=O)NC(C)C#N (stereo not drawn),T/C,[1],103 % of control
same,T/C,[2],95 % of control
same,T/C,[3],95 % of control
CCOc1ccc(NC(=O)C(Br)C(Br)C(=O)O)cc1 (stereo not drawn),T/C,[7],94 % of control
same,T/C,[8],98 % of control
same,T/C,[9],100 % of control
COc1cc(N(CCCl)CCCl)ccc1C=Nc1ccccc1-n1ccnc1,T/C,"dose: 68.8 mg/kg/injection, schedule: Q04DX002 (ip), vehicle: Klucel (hydroxypropylcellulose) (HPC)",102 % of control
same,T/C,"dose: 137.5 mg/kg/injection, schedule: Q04DX002 (ip), vehicle: Klucel (hydroxypropylcellulose) (HPC)",91 % of control
same,T/C,"dose: 275.0 mg/kg/injection, schedule: Q04DX002 (ip), vehicle: Klucel (hydroxypropylcellulose) (HPC)",102 % of control
C=CCOCC(O)CN(C)c1ccccc1 (stereo not drawn),T/C,[7],101 % of control
same,T/C,[10],96 % of control
same,T/C,[8],112 % of control
same,T/C,[11],95 % of control
same,T/C,[9],91 % of control
same,T/C,[12],93 % of control
Cc1ccc2[nH]c(=S)n(-c3ccc(Cl)cc3)c(=O)c2c1,T/C,"dose: 100.0 mg/kg/injection, schedule: Q04DX003 (ip), vehicle: carboxymethylcellulose (CMC)",97 % of control
same,T/C,"dose: 200.0 mg/kg/injection, schedule: Q04DX003 (ip), vehicle: carboxymethylcellulose (CMC)",88 % of control
same,T/C,"dose: 400.0 mg/kg/injection, schedule: Q04DX003 (ip), vehicle: carboxymethylcellulose (CMC)",93 % of control
COc1cc2c(cc1OC)C1C(O)C(OC)C=C3CCN(C2)C31 (stereo not drawn),T/C,[13],100 % of control
same,T/C,[14],97 % of control
same,T/C,[15],103 % of control
CCCCCCc1cc(CN(C2CCCCC2)C2CCCCC2)c(O)cc1O,T/C,[13],92 % of control
same,T/C,[15],87 % of control
COc1ccc2ncccc2c1,T/C,[16],111 % of control
same,T/C,[17],101 % of control
same,T/C,"dose: 400.0 mg/kg/injection, schedule: Q04DX002 (ip), vehicle: saline",104 % of control
COc1cc(N(CCCl)CCCl)c(OC)cc1C=Nc1ccc(-c2csc(Cc3ccccc3)n2)c(Cl)c1,T/C,"dose: 12.5 mg/kg/injection, schedule: Q01DX001 (ip), vehicle: carboxymethylcellulose (CMC)",115 % of control
same,T/C,"dose: 25.0 mg/kg/injection, schedule: Q01DX001 (ip), vehicle: carboxymethylcellulose (CMC)",105 % of control
same,T/C,[18],108 % of control
same,T/C,"dose: 88.0 mg/kg/injection, schedule: Q01DX001 (ip), vehicle: carboxymethylcellulose (CMC)",115 % of control
same,T/C,"dose: 88.0 mg/kg/injection, schedule: Q01DX009 (ip), vehicle: carboxymethylcellulose (CMC)",110 % of control
same,T/C,"dose: 133.0 mg/kg/injection, schedule: Q01DX009 (ip), vehicle: carboxymethylcellulose (CMC)",94 % of control
same,T/C,"dose: 150.0 mg/kg/injection, schedule: Q01DX001 (ip), vehicle: carboxymethylcellulose (CMC)",153 % of control
same,T/C,"dose: 300.0 mg/kg/injection, schedule: Q01DX001 (ip), vehicle: carboxymethylcellulose (CMC)",176 % of control and 182 % of control
COc1cccc(OC)c1C(=O)O,T/C,[19],100 % of control
same,T/C,[20],111 % of control
same,T/C,[21],100 % of control
CC(=O)N1CC=C2c3c1ccc(C)c3C(=O)C2C(N)=O (stereo not drawn),T/C,[13],97 % of control
same,T/C,[14],94 % of control
same,T/C,[15],94 % of control
CCCCNC(=S)NNC(=O)c1ccncc1,T/C,[19],107 % of control
same,T/C,[20],95 % of control and 105 % of control
same,T/C,[21],96 % of control and 98 % of control
CCn1ncc2c(Nc3ccccc3)c(C(=O)c3ccccc3)cnc21,T/C,[10],93 % of control
same,T/C,[11],97 % of control
same,T/C,[12],97 % of control
CSc1cccc(N2C(=O)C=CC2=O)c1,T/C,"dose: 2.5 mg/kg/injection, schedule: Q04DX002 (ip), vehicle: Klucel (hydroxypropylcellulose) (HPC)",92 % of control
same,T/C,"dose: 5.0 mg/kg/injection, schedule: Q04DX002 (ip), vehicle: Klucel (hydroxypropylcellulose) (HPC)",88 % of control
same,T/C,"dose: 10.0 mg/kg/injection, schedule: Q04DX002 (ip), vehicle: Klucel (hydroxypropylcellulose) (HPC)",95 % of control and 97 % of control
NC(=O)O/N=C/c1ccccn1,T/C,[1],105 % of control
same,T/C,[2],103 % of control
same,T/C,[3],106 % of control
CC1CCC2C(C)C3C(CC4C5CCC6CC(O)CCC6(C)C5CCC43C)N2C1 (stereo not drawn),T/C,"dose: 50.0 mg/kg/injection, schedule: Q01DX001 (ip), vehicle: other",91 % of control
same,T/C,"dose: 100.0 mg/kg/injection, schedule: Q01DX001 (ip), vehicle: other",88 % of control
same,T/C,"dose: 200.0 mg/kg/injection, schedule: Q01DX001 (ip), vehicle: other",96 % of control
same,T/C,"dose: 400.0 mg/kg/injection, schedule: Q01DX001 (ip), vehicle: other",91 % of control
O=C(N/N=C/c1ccc(Cl)cc1)c1ccccc1NC(=O)C1CC1,T/C,[7],97 % of control
same,T/C,[8],87 % of control
same,T/C,[9],103 % of control
COc1ccc2c(c1C)CCC1(CO)C(C(C)=O)=CCC21 (stereo not drawn),T/C,[7],105 % of control
same,T/C,[10],92 % of control
same,T/C,[8],110 % of control
same,T/C,[11],97 % of control
same,T/C,[9],100 % of control
same,T/C,[12],102 % of control
COc1ccc(NC(=S)NNC(=S)NNc2ccccc2)cc1,T/C,[7],90 % of control
same,T/C,[10],93 % of control
same,T/C,[8],89 % of control
same,T/C,[11],92 % of control
same,T/C,[12],86 % of control
c1ccc2cc(C3SCCS3)ccc2c1,T/C,"dose: 75.0 mg/kg/injection, schedule: Q04DX003 (ip), vehicle: Klucel (hydroxypropylcellulose) (HPC)",88 % of control
same,T/C,[22],95 % of control
same,T/C,"dose: 150.0 mg/kg/injection, schedule: Q04DX003 (ip), vehicle: Klucel (hydroxypropylcellulose) (HPC)",86 % of control
same,T/C,"dose: 200.0 mg/kg/injection, schedule: Q01DX001 (ip), vehicle: Klucel (hydroxypropylcellulose) (HPC)",97 % of control
same,T/C,"dose: 300.0 mg/kg/injection, schedule: Q04DX003 (ip), vehicle: Klucel (hydroxypropylcellulose) (HPC)",110 % of control
same,T/C,"dose: 400.0 mg/kg/injection, schedule: Q01DX001 (ip), vehicle: Klucel (hydroxypropylcellulose) (HPC)",101 % of control
CC(CCN(CC(=O)O)CC(=O)O)N(CC(=O)O)CC(=O)O (stereo not drawn),T/C,[13],98 % of control
same,T/C,[14],101 % of control
same,T/C,[15],93 % of control
CCC(C)(C(=O)OCCOCCCl)c1cccc2ccccc12 (stereo not drawn),T/C,[4],95 % of control
same,T/C,[5],104 % of control
same,T/C,[6],101 % of control
Nc1nc(=S)c2[nH]c(N=Nc3ccc(S(=O)(=O)Nc4nccs4)cc3)nc2[nH]1,T/C,"dose: 6.25 mg/kg/injection, schedule: Q01DX009 (ip), vehicle: Klucel (hydroxypropylcellulose) (HPC)",92 % of control
same,T/C,"dose: 12.5 mg/kg/injection, schedule: Q01DX009 (ip), vehicle: Klucel (hydroxypropylcellulose) (HPC)",92 % of control
same,T/C,"dose: 25.0 mg/kg/injection, schedule: Q01DX009 (ip), vehicle: Klucel (hydroxypropylcellulose) (HPC)",100 % of control
same,T/C,"dose: 35.0 mg/kg/injection, schedule: Q01DX001 (ip), vehicle: Klucel (hydroxypropylcellulose) (HPC)",119 % of control
same,T/C,[22],123 % of control
same,T/C,[7],88 % of control
CCOC(=O)CNC(=O)C(=[N+]=[N-])C(=O)COc1ccc(F)cc1,T/C,[18],104 % of control
same,T/C,"dose: 100.0 mg/kg/injection, schedule: Q01DX001 (ip), vehicle: carboxymethylcellulose (CMC)",95 % of control
same,T/C,"dose: 200.0 mg/kg/injection, schedule: Q01DX001 (ip), vehicle: carboxymethylcellulose (CMC)",101 % of control
same,T/C,"dose: 400.0 mg/kg/injection, schedule: Q01DX001 (ip), vehicle: carboxymethylcellulose (CMC)",90 % of control
C/C=C/C=C\COC(=O)C1CC1,T/C,[16],116 % of control
same,T/C,[17],121 % of control

# — PubChem BioAssay AID248 (DTP/NCI, 2004)
